Where two headings read alike, the source gives them in different places. Non-standard residues stand in square brackets, D forms with d. Residues, ends and D or L forms follow the SMILES beside them. *: point of attachment. pY = N[C@@H](Cc1ccc(OP(=O)(O)O)cc1)C(=O)O; Caffeoyl = O=C(/C=C/c1ccc(O)c(O)c1)*
Tests used:
[1] = molecular target: T1, STAT3(E616del)-nonphosphorylated (Homo sapiens, UniProt P40763, DEL616-616); assay: biochemical; assay type: binding; conditions: for remaining activity at 10 µM / percent of DMSO vehicle control at 10 µM: read-out: percent of DMSO vehicle control
T1 construct: made in house; host or cells: HEK293 (transient transfection), unpurified extract, dephosphorylated by endogenous phosphatases
T1 sequence (P40763 with tags, fused parts or gaps DEL616-616): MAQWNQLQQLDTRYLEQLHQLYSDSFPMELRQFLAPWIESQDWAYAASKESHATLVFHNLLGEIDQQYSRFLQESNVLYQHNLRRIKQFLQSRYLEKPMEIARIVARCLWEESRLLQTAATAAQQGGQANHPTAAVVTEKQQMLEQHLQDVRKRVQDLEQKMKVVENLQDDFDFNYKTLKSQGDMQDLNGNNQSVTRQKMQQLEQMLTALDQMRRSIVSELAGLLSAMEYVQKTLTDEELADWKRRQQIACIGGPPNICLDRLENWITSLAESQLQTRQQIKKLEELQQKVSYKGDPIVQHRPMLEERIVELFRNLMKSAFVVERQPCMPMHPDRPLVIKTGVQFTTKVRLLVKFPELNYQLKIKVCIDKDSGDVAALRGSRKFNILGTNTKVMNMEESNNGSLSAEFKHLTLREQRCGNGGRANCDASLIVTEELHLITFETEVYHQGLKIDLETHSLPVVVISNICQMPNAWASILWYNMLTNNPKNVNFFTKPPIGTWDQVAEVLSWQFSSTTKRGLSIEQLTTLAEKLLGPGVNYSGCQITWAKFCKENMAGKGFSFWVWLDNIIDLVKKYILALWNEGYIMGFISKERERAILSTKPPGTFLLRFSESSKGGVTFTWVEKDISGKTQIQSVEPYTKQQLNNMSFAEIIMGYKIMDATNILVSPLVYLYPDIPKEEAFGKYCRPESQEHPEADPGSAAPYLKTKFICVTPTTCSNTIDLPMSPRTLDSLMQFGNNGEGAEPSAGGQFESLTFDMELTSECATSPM

SOCS2 = molecular target: SOCS2; parameters: method as in Ramachandran et al., Nature Communications, 2023; conditions: ITC; ref Ramachandran et al., Nature Communications, 2023; cited from earlier work
CBL = molecular target: T2, CBL (Homo sapiens, UniProt P22681); assay: biochemical; assay type: binding
T2 construct: the DNA-tagged SH2 domain concentrations used in this study were <0.1 nM; made in house; host or cells: HEK293 (transient transfection; unpurified extract)
T2 sequence (P22681 249-351 limits assumed): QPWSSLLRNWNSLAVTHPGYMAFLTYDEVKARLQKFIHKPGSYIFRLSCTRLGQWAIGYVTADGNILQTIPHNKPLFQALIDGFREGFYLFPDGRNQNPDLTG

ZAP70(SH2dom1.dom2.) = molecular target: T3, ZAP70(SH2dom1.dom2.) (Homo sapiens, UniProt P43403); conditions: primary screen, 10 μM
T3 sequence (P43403 1-254 limits assumed): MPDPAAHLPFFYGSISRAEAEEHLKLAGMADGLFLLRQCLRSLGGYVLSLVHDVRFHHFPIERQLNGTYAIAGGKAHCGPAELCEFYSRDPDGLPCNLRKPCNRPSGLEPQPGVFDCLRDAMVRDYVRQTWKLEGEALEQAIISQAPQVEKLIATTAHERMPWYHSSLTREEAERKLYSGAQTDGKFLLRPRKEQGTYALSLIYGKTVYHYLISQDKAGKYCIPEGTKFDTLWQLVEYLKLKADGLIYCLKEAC

STAT2 = molecular target: STAT2; parameters: method as in Bai et al., Cancer Cell, 2019; conditions: FP and BLI; ref Bai et al., Cancer Cell, 2019; cited from earlier work
STAT4 [2] = molecular target: STAT4; parameters: method as in Bai et al., Cancer Cell, 2019; conditions: FP and BLI; ref Bai et al., Cancer Cell, 2019; cited from earlier work
STAT1 = molecular target: STAT1; parameters: method as in Bai et al., Cancer Cell, 2019; conditions: FP and BLI; ref Bai et al., Cancer Cell, 2019; cited from earlier work
STAT3 = molecular target: STAT3; parameters: method as in Bai et al., Cancer Cell, 2019; conditions: FP and BLI; ref Bai et al., Cancer Cell, 2019; cited from earlier work
STAT6 [3] = molecular target: STAT6; parameters: method as in Bai et al., Cancer Cell, 2019; conditions: FP and BLI; ref Bai et al., Cancer Cell, 2019; cited from earlier work
PTPN11 (SH2dom.C-term.) = system: PTPN11 (SH2dom.C-term.); parameters: method as in Gay et al., International Journal of Cancer, 1999; conditions: ELISA; ref Gay et al., International Journal of Cancer, 1999; cited from earlier work
PIK3R1 (SH2dom.N-term.) = system: PIK3R1 (SH2dom.N-term.); parameters: method as in Gay et al., International Journal of Cancer, 1999; conditions: ELISA; ref Gay et al., International Journal of Cancer, 1999; cited from earlier work
FYN = system: FYN; parameters: method as in Gay et al., International Journal of Cancer, 1999; conditions: ELISA; ref Gay et al., International Journal of Cancer, 1999; cited from earlier work
PTPN11 (SH2dom.N-term.) = system: PTPN11 (SH2dom.N-term.); parameters: method as in Gay et al., International Journal of Cancer, 1999; conditions: ELISA; ref Gay et al., International Journal of Cancer, 1999; cited from earlier work
GRB2 = system: GRB2; parameters: method as in Gay et al., International Journal of Cancer, 1999; conditions: ELISA; ref Gay et al., International Journal of Cancer, 1999; cited from earlier work
STAT5B [4] = molecular target: STAT5B; parameters: method as in Bai et al., Cancer Cell, 2019; conditions: FP and BLI; ref Bai et al., Cancer Cell, 2019; cited from earlier work
STAT5A = molecular target: STAT5A; parameters: method as in Bai et al., Cancer Cell, 2019; conditions: FP and BLI; ref Bai et al., Cancer Cell, 2019; cited from earlier work
STAT6 [5] = system: STAT6; parameters: method as in Mandal et al., Journal of Medicinal Chemistry, 2015; conditions: FP; ref Mandal et al., Journal of Medicinal Chemistry, 2015; cited from earlier work
STAT5B [6] = molecular target: STAT5B; parameters: method as in earlier work; conditions: FP; ref Elumalai et al., Angewandte Chemie International Edition, 2015; cited from earlier work
STAT6 [7] = molecular target: STAT6; parameters: method as in earlier work; conditions: FP; ref Elumalai et al., Angewandte Chemie International Edition, 2015; cited from earlier work
STAT4 [8] = molecular target: STAT4; parameters: method as in earlier work; conditions: FP; ref Elumalai et al., Angewandte Chemie International Edition, 2015; cited from earlier work

Question: For `O=C(CCl)Nc1cccc(CNC(=O)[C@H](Cc2ccc(OP(=O)(O)O)cc2)NC(=O)Cc2ccc(F)cc2)c1` [MN551], which remaining activity at 10 µM ([1]; primary screen, 10 μM) is on record?
Answer: 203%

Question: What about the Kd (SOCS2) of the same molecule?
Answer: 2.18 µM

Question: For `CC[C@H](C)[C@H](NC(=O)[C@H](CCC(=O)O)NC(=O)[C@H](CCC(=O)O)NC(=O)[C@H](Cc1ccc(OP(=O)(O)O)cc1)NC(C)=O)C(=O)N[C@@H](CCC(=O)O)C(N)=O` [Ac-pYEEIE-NH2] (Ac-[pY]EEIE-NH2), which “percent of DMSO vehicle control” value ([1]; primary screen, 10 μM) is on record?
Answer: 86.7±0.4%

Question: What about the “percent of DMSO vehicle control” value (CBL; primary screen, 10 μM) of the same molecule?
Answer: 121.6%

Question: And the “percent of DMSO vehicle control” value (ZAP70(SH2dom1.dom2.))?
Answer: 134.0%

Question: Which Kd [1] does the source give for `CC(=O)N1CC[C@H]2CC[C@@H](C(=O)N[C@@H](CCC(N)=O)C(=O)NC(c3ccccc3)c3ccccc3)N2C(=O)[C@@H](NC(=O)c2cc3cc(C(F)(F)P(=O)(O)O)ccc3[nH]2)C1` [SI-109] here?
Answer: 0.0087 ± 0.0034 µM

Question: And the percent of DMSO vehicle control at 10 µM [1]?
Answer: 0.1%

Question: And the Kd (STAT2)?
Answer: 6.63 µM

Question: What about the Kd (STAT4 [2]) of the same molecule?
Answer: 1.98 µM

Question: And the Kd (STAT1)?
Answer: 1.27 µM

Question: What about the Kd (STAT3) of the same molecule?
Answer: 0.0512 µM

Question: And the Kd (STAT6 [3])?
Answer: 3.37 µM

Question: With `CC(=O)N[C@@H](Cc1ccc(CP(=O)(O)O)cc1)C(=O)NC1(C(=O)N[C@@H](CC(N)=O)C(=O)NCCCc2c(O)ccc3ccccc23)CCCCC1` [CGP78850] as the molecule, how does the percent of DMSO vehicle control at 10 µM [1] read?
Answer: 71.8 ± 6.4%

Question: What about the IC50 (PTPN11 (SH2dom.C-term.)) of the same molecule?
Answer: > 50 µM

Question: And the IC50 (PIK3R1 (SH2dom.N-term.))?
Answer: > 50 µM

Question: What about the IC50 (FYN) of the same molecule?
Answer: > 50 µM

Question: And the IC50 (PTPN11 (SH2dom.N-term.))?
Answer: > 50 µM

Question: And the IC50 (GRB2)?
Answer: 0.04 µM

Question: For `CC[C@H](C)[C@H](NC(=O)[C@H](CCC(=O)O)NC(=O)[C@H](CCC(=O)O)NC(=O)[C@H](Cc1ccc(OP(=O)(O)O)cc1)NC(=O)/C=C/c1ccc(O)c(O)c1)C(=O)N[C@@H](CCC(=O)O)C(=O)O` [Caffeic acid-pYEEIE] (Caffeoyl-[pY]EEIE-OH), which percent of DMSO vehicle control at 10 µM [1] is on record?
Answer: 85.5 ± 0.3%

Question: And the Kd (CBL)?
Answer: 11 µM

Question: For `NC(=O)CC[C@H](NC(=O)[C@@H]1CC[C@@H]2CCN(C(=O)CCCCCC#Cc3cccc4c3CN(C3CCC(=O)NC3=O)C4=O)C[C@H](NC(=O)c3cc4cc(C(F)(F)P(=O)(O)O)ccc4[nH]3)C(=O)N21)C(=O)NC(c1ccccc1)c1ccccc1` (stereo partly shown) [SD-36], which Kd ([1]; dose-response) is on record?
Answer: 0.028 ± 0.011 µM

Question: What about the percent of DMSO vehicle control at 10 µM [1] of the same molecule?
Answer: 0%

Question: What about the Kd (STAT2) of the same molecule?
Answer: 4.88 µM

Question: What about the Kd (STAT5B [4]) of the same molecule?
Answer: 11.7 µM

Question: What about the Kd (STAT4 [2]) of the same molecule?
Answer: 0.804 µM

Question: And the Kd (STAT1)?
Answer: 1.09 µM

Question: What about the Kd (STAT5A) of the same molecule?
Answer: 6.18 µM

Question: What about the Kd (STAT3) of the same molecule?
Answer: 0.0444 µM

Question: What about the Kd (STAT6 [3]) of the same molecule?
Answer: 11.3 µM

Question: For `CC(C)(C)[C@H](NC(=O)/C=C/c1ccc(OP(=O)(O)O)cc1)C(=O)N1CCC[C@H]1C(=O)N(c1ccccc1)c1ccc(I)cc1` [STAT6-IN-3], which Kd ([1]; dose-response, read-out: KD) is on record?
Answer: 0.28 ± 0.12 µM

Question: What about the remaining activity at 10 µM ([1]; primary screen, 10 μM) of the same molecule?
Answer: 0.4 ± 0.4%

Question: What about the IC50 (STAT6 [5]) of the same molecule?
Answer: 0.044 µM

Question: For `C/C(=C\C(=O)N[C@H](C(=O)N1CCC[C@H]1C(=O)N(c1ccccc1)c1ccc(I)cc1)C(C)(C)C)c1ccc(OP(=O)(O)O)cc1` [STAT6-IN-1], which Kd ([1]; dose-response, read-out: KD) is on record?
Answer: 0.14 ± 0.035 µM

Question: What about the remaining activity at 10 µM ([1]; primary screen, 10 μM) of the same molecule?
Answer: 0%

Question: And the IC50 (STAT6 [5])?
Answer: 0.028 µM

Question: And the Kd (CBL)?
Answer: 8.1 ± 1.3 µM

Question: Which remaining activity at 10 µM ([1]; primary screen, 10 μM) does the source give for `O=C(COc1ccc2cc(C(=O)Nc3ccccc3)ccc2c1)NCc1ccc(OP(=O)(O)O)c(OP(=O)(O)O)c1` [Stafib-1] here?
Answer: 135%

Question: What about the Ki (STAT5B [6]) of the same molecule?
Answer: 0.044 µM

Question: And the Ki (STAT6 [7])?
Answer: 3.47 µM

Question: And the Ki (STAT4 [8])?
Answer: 3.29 µM

Source: article PMC12951562, “SH2scan: Mapping SH2 Domain-Ligand Binding Selectivity for Inhibitors and Degraders” (Journal of Medicinal Chemistry, 2026)
